Reference: publication PMC5087659, “The role of ADP-ribosylation in regulating DNA interstrand crosslink repair” (Journal of Cell Science, 2016)

Molecular target: T1, O. sativa APL (Q10MW4) macrodomain (Oryza sativa, UniProt B8ALM5)
T1 construct: gene OsI_11122
Assay: X-ray crystal structure of the complex (co-crystallisation)
Conditions: 2 mM ADPr added to protein; crystals in 0.1 M SPG buffer pH 4, 25% PEG 1500, 20 °C; macrodomain binding pocket

T1 sequence (B8ALM5 entry or part of it, one chain of several): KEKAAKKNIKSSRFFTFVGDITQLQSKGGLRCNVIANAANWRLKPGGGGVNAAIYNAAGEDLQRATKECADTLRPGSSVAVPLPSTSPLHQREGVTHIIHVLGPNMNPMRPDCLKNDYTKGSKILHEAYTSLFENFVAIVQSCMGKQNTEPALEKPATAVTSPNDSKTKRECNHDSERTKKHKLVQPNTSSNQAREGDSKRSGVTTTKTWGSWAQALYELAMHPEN

Compound: Nc1ncnc2c1ncn2[C@@H]1O[C@H](COP(=O)(O)OP(=O)(O)OC[C@H]2OC(O)[C@H](O)[C@@H]2O)[C@@H](O)[C@H]1O (stereo partly shown) [ADP-ribose]
- X-ray crystal structure of the complex (co-crystallisation): We were able to obtain the O. sativa macrodomain in a complex with ADP-ribose
